In general, LD50 refers to the dose expected to kill half of the subjects tested. A high value points to lower toxicity.

Like-named read-outs stand apart in the source and are kept apart here.

The source of these data is patent publication US4607034A, “Quinazoline derivatives and pharmaceutical composition thereof” (priority 1979, dated 1986).

Data set [1] has as its system spontaneously hypertensive rats (SHR). Put plainly: Antihypertensive test in spontaneously hypertensive rats (mean blood pressure). The data set is classed as in vivo, male). The note with it: Rattus norvegicus. Here is the method: (§1) Through a cannula chronically intubated into the abdominal aorta of a male SHR of 20 to 30 weeks after birth, mean blood pressure and heart rate were measured by means of an electronic recording system without anesthesia and restraint. Five rats were employed in one group of SHR. […] At 1, 3, 6 and 24 hours after administration of test samples, blood pressure and heart rate were determined.

Another data set is described as follows: in vivo. The data set is classed as in vivo. The conditions noted are these: mouse, in vivo; oral, mice, ten mice/group, observed one week. Here is the method: (§2) Ten ICR-strain male mice weighing from 25 to 35 g. were used per one group, after fasting for 6 hours (water was freely taken in). Each test sample was suspended in a 1% tragacanth solution and administered orally at a concentration adjusted so as to give a volume of 40 ml/kg. After administration, feed was given and observation was continued for one week.

The subject of the next data set is ICR-strain male mice. Put plainly: in vivo. Type of data set: in vivo. The conditions noted are these: oral, ten mice/group, one week. Here is the method:
as §2

Data set [2] concerns spontaneously hypertensive rats (SHR). The note with it: rat, in vivo, po. Here is the method:
as §1

Another data set relates to α-adrenoceptor. The note with it: known; cited from earlier work.
Setting [3] is: SHR 3 mg/kg, oral administration, 1 hr, negative = decrease, read-out: Percent decrease in mean blood pressure after administration, 1 hr.
Setting [4] is: SHR 3 mg/kg, oral administration, 3 hrs, negative = decrease, read-out: Percent decrease in mean blood pressure after administration, 3 hrs.
Setting [5] is: SHR 3 mg/kg, oral administration, 6 hrs, negative = decrease, read-out: Percent decrease in mean blood pressure after administration, 6 hrs.
Setting [6] is: SHR 3 mg/kg, oral administration, 24 hrs, negative = decrease, read-out: Percent decrease in mean blood pressure after administration, 24 hrs.

Consider `COc1cc2nc(N3CCN(C(=O)Nc4cccc(Cl)c4)CC3)nc(N)c2cc1OC` [Compound 29, 2-[4-(3-chlorophenyl)carbamoyl-piperazin-1-yl]-4-amino-6,7-dimethoxyquinazoline], for which the change in vivo at 3 mg/kg is -15.1% in data set [1] (setting [3]), -18.5% in data set [1] (setting [4]), -19.4% in data set [1] (setting [5]) and -4.9% in data set [1] (setting [6]).

With `COc1cc2nc(N3CCN(C(=O)Nc4ccc(Cl)cc4C)CC3)nc(N)c2cc1OC` [Compound 34, 2-[4-(2-methyl-4-chlorophenyl)carbamoyl-piperazin-1-yl]-4-amino-6,7-dimethoxyquinazoline], the change in vivo at 3 mg/kg in data set [1] (setting [3]) is -12.1%; in data set [1] (setting [4]) it was -19%; in data set [1] (setting [5]), -18.2%; in data set [1] (setting [6]), -1.2%.

For `COc1cc2nc(N3CCN(C(=O)NC4CCCCC4)CC3)nc(N)c2cc1OC` [Compound 4, 2-(4-cyclohexylcarbamoyl-piperazin-1-yl)-4-amino-6,7-dimethoxyquinazoline], the change in vivo at 3 mg/kg was -26.8% in data set [1] (setting [3]), -26.2% in data set [1] (setting [4]), -25.1% in data set [1] (setting [5]) and -4.9% in data set [1] (setting [6]). The same molecule returned an LD50 at 168 h in the data set “in vivo” greater than 5000 mg/kg. In addition, the “Number of dead mouse” value in the data set on ICR-strain male mice (2,500 mg/kg) and in the data set on ICR-strain male mice (5,000 mg/kg) was 0 throughout.

Consider `COc1cc2nc(N3CCN(C(=O)Nc4ccccc4)CC3)nc(N)c2cc1OC` [Compound 12, 2-(4-phenylcarbamoyl-piperazin-1-yl)-4-amino-6,7-dimethoxyquinazoline], for which the change in vivo at 3 mg/kg in data set [1] (setting [3]) is -13.3%; in data set [1] (setting [4]), -19.7%; in data set [1] (setting [5]), -17%; in data set [1] (setting [6]), 3.7%. Moreover, the LD50 at 168 h in the data set “in vivo” is greater than 5000 mg/kg. In addition, the “Number of dead mouse” value in the data set on ICR-strain male mice (2,500 mg/kg) and with ICR-strain male mice (5,000 mg/kg) was 0 in each case.

As to `COc1cc2nc(N3CCN(C(=O)c4ccco4)CC3)nc(N)c2cc1OC` [Prazosin, 2-[4-(2-furoyl)-piperazin-1-yl]-4-amino-6,7-dimethoxyquinazoline, reference compound], the change in vivo at 3 mg/kg was -1.7% in data set [1] (po, 24 h, read-out: Percent decrease in mean blood pressure after administration, 24 hrs); -27.9% in data set [1] (setting [3]); -17.3% in data set [1] (setting [4]); -19% in data set [1] (setting [5]). In addition, the “change in heart rate” value in data set [2] is “no significant change”. Also, in the data set with α-adrenoceptor, the “mechanism of antihypertensive activity” value is recorded as “relaxation of peripheral arterioles as a consequence of α-adrenoceptor blockade”.

As to `COc1cc2nc(N3CCN(C(=O)Nc4ccccc4C)CC3)nc(N)c2cc1OC` [Compound 13, 2-[4-(2-methylphenyl)carbamoyl-piperazin-1-yl]-4-amino-6,7-dimethoxyquinazoline], the change in vivo at 3 mg/kg is -20.2% in data set [1] (setting [3]), -17.9% in data set [1] (setting [4]), -21.4% in data set [1] (setting [5]) and 1.2% in data set [1] (setting [6]). The median lethal dose (LD50) at 168 h in “in vivo” was determined as 2500 mg/kg. For the same molecule, the entries for the “Number of dead mouse” value with ICR-strain male mice (2,500 mg/kg) and with ICR-strain male mice (5,000 mg/kg) were 5 and 10, respectively.

Turning to `COc1cc2nc(N3CCN(C(=O)Nc4ccco4)CC3)nc(N)c2cc1OC` [Compound 6, 2-[4-(furan-2-yl)carbamoyl-piperazin-1-yl]-4-amino-6,7-dimethoxyquinazoline], the change in vivo at 3 mg/kg was -11.9% in data set [1] (setting [3]), -14.5% in data set [1] (setting [4]), -11.4% in data set [1] (setting [5]) and 1% in data set [1] (setting [6]).

Take `COc1cc2nc(N3CCN(/C(S)=N/c4ccccc4)CC3)nc(N)c2cc1OC` [Compound 35, 2-(4-phenylthiocarbamoyl-piperazin-1-yl)-4-amino-6,7-dimethoxyquinazoline]: the change in vivo at 3 mg/kg was -28% in data set [1] (setting [3]), -20.9% in data set [1] (setting [4]), -24.7% in data set [1] (setting [5]) and 0.6% in data set [1] (setting [6]). In addition, in “in vivo”, the LD50 at 168 h is greater than 5000 mg/kg. The “Number of dead mouse” value in the data set with ICR-strain male mice (2,500 mg/kg) and in the data set on ICR-strain male mice (5,000 mg/kg) was 0 each time.

With `COc1cc2nc(N3CCN(C(=O)Nc4ccc(C)cc4)CC3)nc(N)c2cc1OC` [Compound 15, 2-[4-(4-methylphenyl)carbamoyl-piperazin-1-yl]-4-amino-6,7-dimethoxyquinazoline], the change in vivo at 3 mg/kg in data set [1] (setting [3]) is -17.1%; in data set [1] (setting [4]), -18.5%; in data set [1] (setting [5]) it was -21.8%; in data set [1] (setting [6]), 1.2%.

With `COc1cc2nc(N3CCN(C(=O)Nc4cccc(F)c4)CC3)nc(N)c2cc1OC` [Compound 26, 2-[4-(3-fluorophenyl)carbamoyl-piperazin-1-yl]-4-amino-6,7-dimethoxyquinazoline], the change in vivo at 3 mg/kg is -21.5% in data set [1] (setting [3]), -21.7% in data set [1] (setting [4]), -24.3% in data set [1] (setting [5]) and 0% in data set [1] (setting [6]).

As to `COc1cc2nc(N3CCN(C(=O)NC4CCCCCC4)CC3)nc(N)c2cc1OC` [Compound 5, 2-(4-cycloheptylcarbamoyl-piperazin-1-yl)-4-amino-6,7-dimethoxyquinazoline], the change in vivo at 3 mg/kg in data set [1] (setting [3]) was -18.4%; in data set [1] (setting [4]) it was -24.7%; in data set [1] (setting [5]), -19.2%; in data set [1] (setting [6]), -3.7%.

For the molecule `COc1cc2nc(N3CCN(C(=O)NC4CCCC4)CC3)nc(N)c2cc1OC` [Compound 3, 2-(4-cyclopentylcarbamoyl-piperazin-1-yl)-4-amino-6,7-dimethoxyquinazoline], the change in vivo at 3 mg/kg was -27.1% in data set [1] (setting [3]), -27% in data set [1] (setting [4]), -27% in data set [1] (setting [5]) and -0.3% in data set [1] (setting [6]). The molecule also came in with an LD50 at 168 h in “in vivo” greater than 5000 mg/kg. The “Number of dead mouse” value in the data set with ICR-strain male mice (2,500 mg/kg) and in the data set on ICR-strain male mice (5,000 mg/kg) was 0 throughout.

Take `COc1cc2nc(N3CCCN(C(=O)Nc4ccccc4)CC3)nc(N)c2cc1OC` [Compound 37, 2-(4-phenylcarbamoyl-homopiperazin-1-yl)-4-amino-6,7-dimethoxyquinazoline]: the change in vivo at 3 mg/kg in data set [1] (setting [3]) was -11.7%; in data set [1] (setting [4]), -12.8%; in data set [1] (setting [5]) it was -5%; in data set [1] (setting [6]) it was 0%.

With `COc1cc2nc(N3CCN(C(=S)NC4CCCCC4)CC3)nc(N)c2cc1OC` [Compound 9, 2-(4-cyclohexylthiocarbamoyl-piperazin-1-yl)-4-amino-6,7-dimethoxyquinazoline], the change in vivo at 3 mg/kg in data set [1] (setting [3]) is -19.3%; in data set [1] (setting [4]) it was -22.2%; in data set [1] (setting [5]) it was -20.5%; in data set [1] (setting [6]), -1.3%.

For `CCOc1ccc(NC(=O)N2CCN(c3nc(N)c4cc(OC)c(OC)cc4n3)CC2)cc1` [Compound 21, 2-[4-(4-ethoxyphenyl)carbamoyl-piperazin-1-yl]-4-amino-6,7-dimethoxyquinazoline], the change in vivo at 3 mg/kg was -22.4% in data set [1] (setting [3]), -24.5% in data set [1] (setting [4]), -27.7% in data set [1] (setting [5]) and -6.4% in data set [1] (setting [6]). The same molecule returned an LD50 at 168 h in the data set “in vivo” greater than 5000 mg/kg. The “Number of dead mouse” value in the data set with ICR-strain male mice (2,500 mg/kg) and with ICR-strain male mice (5,000 mg/kg) was 0 each time.

As for `COc1cc2nc(N3CCN(C(=O)Nc4ccccc4F)CC3)nc(N)c2cc1OC` [Compound 25, 2-[4-(2-fluorophenyl)carbamoyl-piperazin-1-yl]-4-amino-6,7-dimethoxyquinazoline], the change in vivo at 3 mg/kg is -30.3% in data set [1] (setting [3]), -22% in data set [1] (setting [4]), -23.8% in data set [1] (setting [5]) and -7.3% in data set [1] (setting [6]). The same molecule had an LD50 at 168 h in “in vivo” of 1870 mg/kg. Also, the “Number of dead mouse” value is 3 in the data set on ICR-strain male mice (1,250 mg/kg), 7 with ICR-strain male mice (2,500 mg/kg) and 10 with ICR-strain male mice (5,000 mg/kg).

As to `COc1cccc(NC(=O)N2CCN(c3nc(N)c4cc(OC)c(OC)cc4n3)CC2)c1` [Compound 18, 2-[4-(3-methoxyphenyl)carbamoyl-piperazin-1-yl]-4-amino-6,7-dimethoxyquinazoline], the change in vivo at 3 mg/kg was -5.9% in data set [1] (setting [3]), -17.2% in data set [1] (setting [4]), -15.9% in data set [1] (setting [5]) and 4.6% in data set [1] (setting [6]).
